Test results taken from patent US11306084B2, “Integrin antagonists” (Saint Louis University, priority 2016, dated 2022).
Where a name gives a salt, the structure may show the parent alone.

How the values were obtained:
Format in all cases: binding
[1] = target: T1, Recombinant human integrin ανβ8 (Homo sapiens, UniProt P06756+P26012); experiment: Solid Phase Receptor Assay (SPRA) for ανβ8 function; details: for IC50: plate-bound human LAP, read-out: αvβ8 SPRA IC50
T1 construct: purchased R&D Systems 4135-AV
T1 sequence (P06756 31-992 limits assumed): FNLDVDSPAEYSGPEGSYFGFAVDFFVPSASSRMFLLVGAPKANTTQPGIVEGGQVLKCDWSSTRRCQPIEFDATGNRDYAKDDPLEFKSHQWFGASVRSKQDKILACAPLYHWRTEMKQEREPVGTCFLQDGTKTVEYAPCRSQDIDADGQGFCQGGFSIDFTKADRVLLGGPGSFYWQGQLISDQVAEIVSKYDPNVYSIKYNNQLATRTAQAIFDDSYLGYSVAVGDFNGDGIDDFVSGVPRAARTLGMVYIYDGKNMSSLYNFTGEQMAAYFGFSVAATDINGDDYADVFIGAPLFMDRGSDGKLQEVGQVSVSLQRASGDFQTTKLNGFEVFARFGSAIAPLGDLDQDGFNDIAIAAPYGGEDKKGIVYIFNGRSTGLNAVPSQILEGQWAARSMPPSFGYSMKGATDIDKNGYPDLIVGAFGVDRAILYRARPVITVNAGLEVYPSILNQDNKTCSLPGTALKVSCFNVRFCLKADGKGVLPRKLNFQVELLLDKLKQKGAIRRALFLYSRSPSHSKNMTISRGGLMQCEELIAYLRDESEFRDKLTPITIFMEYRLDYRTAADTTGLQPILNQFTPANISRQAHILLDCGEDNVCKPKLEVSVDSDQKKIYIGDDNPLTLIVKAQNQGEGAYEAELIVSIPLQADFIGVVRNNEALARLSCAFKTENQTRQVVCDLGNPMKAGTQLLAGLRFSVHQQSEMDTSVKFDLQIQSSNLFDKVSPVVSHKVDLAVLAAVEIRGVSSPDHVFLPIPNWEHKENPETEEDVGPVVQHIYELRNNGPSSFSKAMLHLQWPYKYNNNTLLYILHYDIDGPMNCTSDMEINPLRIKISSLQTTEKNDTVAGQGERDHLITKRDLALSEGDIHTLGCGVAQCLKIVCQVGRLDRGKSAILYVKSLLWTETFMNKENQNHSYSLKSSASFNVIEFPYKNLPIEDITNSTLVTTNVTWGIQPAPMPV
T1 sequence (P26012 43-684 limits assumed): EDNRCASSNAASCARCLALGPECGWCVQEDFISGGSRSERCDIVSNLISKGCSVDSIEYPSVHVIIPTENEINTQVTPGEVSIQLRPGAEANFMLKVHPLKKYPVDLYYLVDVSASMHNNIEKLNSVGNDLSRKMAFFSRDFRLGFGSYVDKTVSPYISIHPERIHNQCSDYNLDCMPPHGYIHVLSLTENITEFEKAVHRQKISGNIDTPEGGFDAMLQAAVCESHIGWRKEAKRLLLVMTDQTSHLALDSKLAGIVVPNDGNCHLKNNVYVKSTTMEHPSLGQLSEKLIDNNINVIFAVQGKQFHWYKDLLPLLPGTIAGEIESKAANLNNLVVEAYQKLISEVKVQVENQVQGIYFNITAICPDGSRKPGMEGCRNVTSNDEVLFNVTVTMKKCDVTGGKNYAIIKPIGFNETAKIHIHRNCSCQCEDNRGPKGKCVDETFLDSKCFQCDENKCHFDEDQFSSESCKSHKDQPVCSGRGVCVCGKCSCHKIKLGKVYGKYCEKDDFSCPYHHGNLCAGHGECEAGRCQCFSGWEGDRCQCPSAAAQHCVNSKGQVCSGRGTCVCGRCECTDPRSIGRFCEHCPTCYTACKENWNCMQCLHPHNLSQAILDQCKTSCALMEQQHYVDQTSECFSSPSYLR
Experimental: F. Solid Phase Receptor Assay (SPRA) for ανβ8 Function
Wells were washed 3 times with 150 μL TBS+ and then 150 μL of blocking buffer (TBS+ with 1% bovine serum albumin, Sigma A7906) was added. The plate was incubated for 1 hr at 37° C. and then washed 3× with TBS+. […] Compounds were diluted to 20 μM and 1 μL was added to each well of the plate according to a standard template with each sample repeated in triplicate. After incubation for two hours at room temperature, the plate was washed 3× with 150 μL of TBS+. To each well, 50 μL of biotinylated anti-αν antibody (R&D Systems, BAF1219) at 1 μg/mL in TBS+/0.1% BSA were added and the plate was covered and incubated for 1 hr at room temperature. After washing the plate 3× with 150 μL. of TBS+ buffer, 50 μL of streptavidin-conjugated horseradish peroxidase (R&D Systems, DY998) diluted in TBS+ blocking buffer were added to the wells and the plate incubated for 20 min at room temperature. The plate was washed 3× with TBS+ followed by 50 μL of TMB substrate (Sigma T4444) added to each well in the dark and the plate incubated for 10 min at room temperature. 25 μL of 1.0 M phosphoric acid was added as a stop solution and the plates were read at 450 nm using a Spectramax plate reader.

[2] = target: T2, Recombinant human integrin α5β1 (Homo sapiens, UniProt P05556+P08648); experiment: Solid Phase Receptor Assay (SPRA) for α5β1 function; details: for IC50: plate-bound human fibronectin
T2 construct: purchased R&D Systems 3230-A5
T2 sequence (P08648 42-995 limits assumed): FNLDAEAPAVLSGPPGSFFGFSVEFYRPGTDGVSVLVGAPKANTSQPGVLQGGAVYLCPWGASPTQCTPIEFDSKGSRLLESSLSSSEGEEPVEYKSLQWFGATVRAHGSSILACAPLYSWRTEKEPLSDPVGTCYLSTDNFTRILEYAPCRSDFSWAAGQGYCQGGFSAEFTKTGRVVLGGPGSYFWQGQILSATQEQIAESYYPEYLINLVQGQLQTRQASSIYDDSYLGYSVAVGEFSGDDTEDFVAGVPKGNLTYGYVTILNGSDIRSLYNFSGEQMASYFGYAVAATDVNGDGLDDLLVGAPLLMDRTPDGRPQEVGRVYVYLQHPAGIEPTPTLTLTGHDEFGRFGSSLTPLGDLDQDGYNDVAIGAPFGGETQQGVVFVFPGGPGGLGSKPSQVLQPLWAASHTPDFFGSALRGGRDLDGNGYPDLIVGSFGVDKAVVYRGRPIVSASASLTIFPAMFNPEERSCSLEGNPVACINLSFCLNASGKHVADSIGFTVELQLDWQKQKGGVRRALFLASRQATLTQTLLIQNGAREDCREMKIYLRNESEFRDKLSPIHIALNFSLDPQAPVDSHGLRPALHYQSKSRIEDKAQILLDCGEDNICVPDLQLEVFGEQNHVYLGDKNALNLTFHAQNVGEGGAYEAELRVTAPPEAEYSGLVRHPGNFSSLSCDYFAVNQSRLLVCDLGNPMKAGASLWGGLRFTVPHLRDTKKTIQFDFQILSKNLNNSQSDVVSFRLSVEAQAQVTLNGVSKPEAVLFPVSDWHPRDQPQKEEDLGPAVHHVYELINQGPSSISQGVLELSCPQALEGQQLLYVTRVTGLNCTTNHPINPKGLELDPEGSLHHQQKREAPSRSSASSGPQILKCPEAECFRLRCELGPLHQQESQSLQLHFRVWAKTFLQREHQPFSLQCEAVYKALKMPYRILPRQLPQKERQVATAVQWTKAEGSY
T2 sequence (P05556 21-728 limits assumed): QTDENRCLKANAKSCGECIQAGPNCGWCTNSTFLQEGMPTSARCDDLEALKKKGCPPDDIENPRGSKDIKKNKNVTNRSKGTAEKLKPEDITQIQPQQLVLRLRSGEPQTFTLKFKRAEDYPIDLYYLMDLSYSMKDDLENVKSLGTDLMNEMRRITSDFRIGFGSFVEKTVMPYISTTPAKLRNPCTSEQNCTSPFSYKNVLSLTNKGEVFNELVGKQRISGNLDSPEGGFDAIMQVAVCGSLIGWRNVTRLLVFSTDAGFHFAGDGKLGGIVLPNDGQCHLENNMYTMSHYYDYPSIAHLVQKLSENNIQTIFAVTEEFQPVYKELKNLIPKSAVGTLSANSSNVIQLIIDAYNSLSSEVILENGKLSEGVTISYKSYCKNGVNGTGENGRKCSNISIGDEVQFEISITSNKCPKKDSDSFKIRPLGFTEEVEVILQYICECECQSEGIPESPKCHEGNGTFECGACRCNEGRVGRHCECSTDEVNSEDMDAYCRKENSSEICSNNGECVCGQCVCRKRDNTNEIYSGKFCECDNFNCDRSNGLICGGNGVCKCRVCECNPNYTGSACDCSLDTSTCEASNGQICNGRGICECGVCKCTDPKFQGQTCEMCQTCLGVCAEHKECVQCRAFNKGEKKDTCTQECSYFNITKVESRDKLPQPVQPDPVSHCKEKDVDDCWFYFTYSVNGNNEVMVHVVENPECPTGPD
Experimental: A. Solid Phase Receptor Assay (SPRA) for α5β1 Function
Wells were washed 3 times with 150 μL TBS+ and then 150 μL of blocking buffer (TBS+ with 1% bovine serum albumin, Sigma A7906) was added. The plate was incubated for 1 hr at 37° C. and then washed 3× with TBS+ buffer. […] Compounds were diluted to 20 μM and then 1 μL was added to each well of the plate according to a standard template with each sample repeated in triplicate. After incubation for two hours at room temperature, the plate was washed 3× with 150 μL of TBS+ buffer. To each well, 50 μL of biotinylated anti-α5 antibody (R&D Systems, BAF1864) at 0.5 μg/mL in TBS+/0.1% BSA were added and the plate covered and incubated for 1 hr at room temperature. After washing the plate 3× with 150 μL of TBS+ buffer, 50 μL of streptavidin-conjugated horseradish peroxidase (R&D Systems, DY998) diluted in TBS+ blocking buffer were added to the wells and the plate incubated for 20 min at room temperature. The plate was washed 3× with TBS+ buffer followed by 50 μL of room temperature TMB substrate (Sigma, T4444) added to each well in the dark and the plate incubated for 25 min at room temperature. 25 μL of 1.0 M phosphoric acid was added as a stop solution and the plates were read at 450 nm using a Spectramax plate reader.

[3] = target: T3, Recombinant human integrin ανβ5 (Homo sapiens, UniProt P06756+P18084); experiment: Solid Phase Receptor Assay (SPRA) for ανβ5 function; details: for IC50: plate-bound human vitronectin, read-out: αvβ5 SPRA IC50
T3 construct: purchased R&D Systems 2528-AV
T3 sequence (P06756 31-992 limits assumed): as the sequence (P06756 31-992 limits assumed) above
T3 sequence (P18084 24-719 limits assumed): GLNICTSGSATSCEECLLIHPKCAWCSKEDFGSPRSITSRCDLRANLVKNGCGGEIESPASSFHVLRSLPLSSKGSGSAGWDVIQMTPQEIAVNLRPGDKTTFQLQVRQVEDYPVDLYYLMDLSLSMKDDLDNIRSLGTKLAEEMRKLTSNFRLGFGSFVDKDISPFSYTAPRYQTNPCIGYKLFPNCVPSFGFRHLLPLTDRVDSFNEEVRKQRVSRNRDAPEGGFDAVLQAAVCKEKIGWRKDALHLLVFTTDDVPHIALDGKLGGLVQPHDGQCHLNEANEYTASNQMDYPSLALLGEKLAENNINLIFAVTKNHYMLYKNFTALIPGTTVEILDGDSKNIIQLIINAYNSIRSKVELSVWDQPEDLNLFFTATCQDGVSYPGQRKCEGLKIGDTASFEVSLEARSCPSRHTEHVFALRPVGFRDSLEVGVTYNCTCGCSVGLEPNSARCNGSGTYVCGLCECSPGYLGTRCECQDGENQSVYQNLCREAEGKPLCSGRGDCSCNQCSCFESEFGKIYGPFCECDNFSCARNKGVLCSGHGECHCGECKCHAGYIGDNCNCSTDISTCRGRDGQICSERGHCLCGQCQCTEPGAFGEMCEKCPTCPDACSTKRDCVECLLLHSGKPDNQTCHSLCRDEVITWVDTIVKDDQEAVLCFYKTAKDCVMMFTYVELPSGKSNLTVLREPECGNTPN
Experimental: D. Solid Phase Receptor Assay (SPRA) for ανβ5 Function
Wells were washed 3 times with 150 μL TBS+ and then 150 μL of blocking buffer (TBS+ with 1% bovine serum albumin, Sigma A7906) was added. The plate was incubated for 1 hr at 37° C. and then washed 3× with TBS+ buffer. […] Compounds were diluted to 20 μM and then 1 μL was added to each well of the plate according to a standard template with each sample repeated in triplicate. After incubation for two hours at room temperature, the plate was washed 3× with 150 μL of TBS+ buffer. To each well, 50 μl of biotinylated anti-αν antibody (R&D Systems, BAF1219) at 0.5 μg/mL in TBS+/0.1% BSA at 0.5 μg/mL were added and the plate covered and incubated for 1 hr at room temperature. After washing the plate 3 with 150 μL of TBS+ buffer, 50 μL of streptavidin-conjugated horseradish peroxidase (R&D Systems, DY998) diluted in TBS+ blocking buffer were added to the wells and the plate incubated for 20 min at room temperature. The plate was washed 3× with TBS+ buffer followed by 50 μL of TMB substrate (Sigma T4444) added to each well in the dark and the plate incubated for 5 min at room temperature. 25 μL of 1.0 M phosphoric acid was added as a stop solution and the plates were read at 450 nm using a Spectramax plate reader.

[4] = target: T4, Recombinant human integrin ανβ6 (Homo sapiens, UniProt P06756+P18564); experiment: Solid Phase Receptor Assay (SPRA) for ανβ6 function; details: for IC50: plate-bound human LAP, read-out: αvβ6 SPRA IC50
T4 construct: purchased R&D Systems 3817-AV
T4 sequence (P06756 31-992 limits assumed): as the sequence (P06756 31-992 limits assumed) above
T4 sequence (P18564 22-707 limits assumed): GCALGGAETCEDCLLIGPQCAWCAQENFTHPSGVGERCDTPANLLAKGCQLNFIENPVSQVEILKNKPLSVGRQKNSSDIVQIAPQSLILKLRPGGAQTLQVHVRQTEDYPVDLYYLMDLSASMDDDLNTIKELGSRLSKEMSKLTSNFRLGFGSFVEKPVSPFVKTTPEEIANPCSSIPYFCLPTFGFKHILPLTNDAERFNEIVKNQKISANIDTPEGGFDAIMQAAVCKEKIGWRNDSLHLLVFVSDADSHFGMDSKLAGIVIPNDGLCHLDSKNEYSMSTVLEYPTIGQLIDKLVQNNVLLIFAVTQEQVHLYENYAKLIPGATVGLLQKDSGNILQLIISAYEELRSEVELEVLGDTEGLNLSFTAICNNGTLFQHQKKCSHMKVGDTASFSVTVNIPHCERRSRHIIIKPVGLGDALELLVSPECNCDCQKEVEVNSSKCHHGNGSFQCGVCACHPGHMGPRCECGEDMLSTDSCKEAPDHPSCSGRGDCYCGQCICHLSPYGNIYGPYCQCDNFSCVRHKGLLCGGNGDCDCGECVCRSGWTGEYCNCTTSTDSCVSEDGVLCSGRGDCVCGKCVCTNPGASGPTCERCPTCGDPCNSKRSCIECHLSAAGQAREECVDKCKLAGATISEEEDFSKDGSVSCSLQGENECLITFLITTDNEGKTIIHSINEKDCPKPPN
Experimental: E. Solid Phase Receptor Assay (SPRA) for ανβ6 Function
Wells were washed 3 times with 150 μL TBS+, and then 150 μL of blocking buffer (TBS+ with 1% bovine serum albumin, Sigma A7906) was added. The plate was incubated for 1 hr at 37° C., and then washed 3× with TBS+ buffer. […] Compounds were diluted to 20 μM and then 1 μL was added to each well of the plate according to a standard template with each sample repeated in triplicate. After incubation for two hours at room temperature, the plate was washed 3× with 150 μL of TBS+ buffer. To each well, 50 μL of biotinylated anti-αν antibody (R&D Systems, BAF1219) at 0.5 μg/mL in TBS+/0.1% BSA were added and the plate was covered and incubated for 1 hr at room temperature. After washing the plate 3× with 150 μL of TBS+ buffer, 50 μL of streptavidin-conjugated horseradish peroxidase (R&D Systems, DY998) diluted in TBS+ blocking buffer were added to the wells and the plate incubated for 20 min at room temperature. The plate was washed 3× with TBS+ buffer followed by 50 μL of TMB substrate (Sigma T4444) added to each well in the dark and the plate incubated for 10 min at room temperature. 25 μL of 1.0 M phosphoric acid was added as a stop solution and the plates were read at 450 nm using a Spectramax plate reader.

SMILES	IC50 [1]	IC50 [2]	IC50 [3]	IC50 [4]	inhibitory activity at ανβ8 (in words) [1]	inhibitory activity at α5β1 (in words) [2]	inhibitory activity at ανβ5 (in words) [3]	inhibitory activity at ανβ6 (in words) [4]
Cn1nc(CC(CC(=O)O)c2cc(Cl)cc(C3(C(F)F)CC3)c2)cc1OCCc1ccc2c(n1)NCCC2 (stereo not drawn) [Example 22, 3-(3-chloro-5-(1-(difluoromethyl)cyclopropyl)phenyl)-4-(1-methyl-5-(2-(5,6,7,8-tetrahydro-1,8-naphthyridin-2-yl)ethoxy)-1H-pyrazol-3-yl)butanoic Acid]	17 nM	8.8 nM	0.6 nM	26 nM	–	–	–	–
COc1c(C(CC(=O)O)Cc2cc(OCCc3ccc4c(n3)NCCC4)n(C)n2)cccc1C(C)(C)C (stereo not drawn) [Example 33, 3-(3-(tert-butyl)-2-methoxyphenyl)-4-(1-methyl-5-(2-(5,6,7,8-tetrahydro-1,8-naphthyridin-2-yl)ethoxy)-1H-pyrazol-3-yl)butanoic Acid]	970 nM	3900 nM	3.1 nM	2400 nM	–	–	–	–
COc1ccc(C(=O)O)cc1C(CC(=O)O)Cc1cc(OCCc2ccc3c(n2)NCCC3)n(C)n1 (stereo not drawn) [Example 48, 3-(1-carboxy-3-(1-methyl-5-(2-(5,6,7,8-tetrahydro-1,8-naphthyridin-2-yl)ethoxy)-1H-pyrazol-3-yl)propan-2-yl)-4-methoxybenzoic Acid Trifluoroacetate]	92 nM	230 nM	0.7 nM	680 nM	–	–	–	–
Cn1nc(CC(CC(=O)O)c2cc(C(C)(C)C)cc(C(F)(F)F)c2)cc1OCCc1ccc2c(n1)NCCC2 (stereo not drawn) [Example 37, 3-[3-tert-butyl-5-(trifluoromethyl)phenyl]-4-[1-methyl-5-[2-(5,6,7,8-tetrahydro-1,8-naphthyridin-2-yl)ethoxyl]pyrazol-3-yl]butanoic Acid]	18 nM	7.9 nM	6.2 nM	140 nM	–	–	–	–
Cn1nc(CC(CC(=O)O)c2cc(F)cc(C(C)(C)C)c2)cc1OCCc1ccc2c(n1)NCCC2 (stereo not drawn) [Example 38, 3-(3-(tert-butyl)-5-fluorophenyl)-4-(1-methyl-5-(2-(5,6,7,8-tetrahydro-1,8-naphthyridin-2-yl)ethoxy)-1H-pyrazol-3-yl)butanoic Acid]	140 nM	23 nM	0.3 nM	110 nM	–	–	–	–
Cn1nc(CC(CC(=O)O)c2cc(F)cc(C3(C(F)F)CC3)c2)cc1OCCc1ccc2c(n1)NCCC2 (stereo not drawn) [Example 21, 3-(3-(1-(difluoromethyl)cyclopropyl)-5-fluorophenyl)-4-(1-methyl-5-(2-(5,6,7,8-tetrahydro-1,8-naphthyridin-2-yl)ethoxy)-1H-pyrazol-3-yl)butanoic Acid]	53 nM	12 nM	0.2 nM	47 nM	–	–	–	–
Cn1nc(CC(CC(=O)O)c2ccc(C#N)c(F)c2)cc1OCCc1ccc2c(n1)NCCC2 (stereo not drawn) [Example 8]	48 nM	166 nM	1 nM	52 nM	–	–	–	–
CC(C)c1cc(Br)cc(C(CC(=O)O)Cc2cc(OCCc3ccc4c(n3)NCCC4)n(C)n2)c1 (stereo not drawn) [Example 40, 3-(3-bromo-5-isopropyl-phenyl)-4-[1-methyl-5-[2-(5,6,7,8-tetrahydro-1,8-naphthyridin-2-yl)ethoxyl]pyrazol-3-yl]butanoic acid trifluoroacetate]	9 nM	21 nM	1.1 nM	79 nM	–	–	–	–
Cn1nc(CC(CC(=O)O)c2cc(OC(F)(F)F)cc(C(C)(C)C)c2)cc1OCCc1ccc2c(n1)NCCC2 (stereo not drawn) [Example 36, 3-[3-tert-butyl-5-(trifluoromethoxy)phenyl]-4-[1-methyl-5-[2-(5,6,7,8-tetrahydro-1,8-naphthyridin-2-yl)ethoxy]pyrazol-3-yl]butanoic Acid]	40 nM	7.1 nM	1.1 nM	120 nM	–	–	–	–
COc1ccc(C(C)(C)C)cc1C(CC(=O)O)Cc1cc(OCCc2ccc3c(n2)NCCC3)n(C)n1 (stereo not drawn) [Example 32, 3-(5-(tert-butyl)-2-methoxyphenyl)-4-(1-methyl-5-(2-(5,6,7,8-tetrahydro-1,8-naphthyridin-2-yl)ethoxy)-1H-pyrazol-3-yl)butanoic Acid]	87 nM	33 nM	280 nM	230 nM	low activity	high inhibitory activity	low activity	low activity
Cc1ccc(C(C)(C)C)cc1C(CC(=O)O)Cc1cc(OCCc2ccc3c(n2)NCCC3)n(C)n1 (stereo not drawn) [Example 44, 3-(5-tert-butyl-2-methyl-phenyl)-4-[1-methyl-5-[2-(5,6,7,8-tetrahydro-1,8-naphthyridin-2-yl)ethoxy]pyrazol-3-yl]butanoic Acid Trifluoroacetate]	360 nM	230 nM	76 nM	7100 nM	–	–	–	–
COc1ccc(C(N)=O)cc1C(CC(=O)O)Cc1cc(OCCc2ccc3c(n2)NCCC3)n(C)n1 (stereo not drawn) [Example 47, 3-(5-carbamoyl-2-methoxyphenyl)-4-(1-methyl-5-(2-(5,6,7,8-tetrahydro-1,8-naphthyridin-2-yl)ethoxy)-1H-pyrazol-3-yl)butanoic Acid trifluoroacetate]	3.6 nM	13 nM	0.3 nM	77 nM	–	–	–	–
Cn1nc(CC(CC(=O)O)c2ccc(F)c(Br)c2)cc1OCCc1ccc2c(n1)NCCC2 (stereo not drawn) [Example 5, 3-(3-bromo-4-fluorophenyl)-4-(1-methyl-5-(2-(5,6,7,8-tetrahydro-1,8-naphthyridin-2-yl)ethoxy)-1H-pyrazol-3-yl)butanoic Acid]	16 nM	140 nM	0.4 nM	73 nM	–	–	–	–
COCC1(c2cc(Cl)cc(C(CC(=O)O)Cc3cc(OCCc4ccc5c(n4)NCCC5)n(C)n3)c2)CCOCC1 (stereo not drawn) [Example 29, 3-(3-chloro-5-(4-(methoxymethyl)tetrahydro-2H-pyran-4-yl)phenyl)-4-(1-methyl-5-(2-(5,6,7,8-tetrahydro-1,8-naphthyridin-2-yl)ethoxy)-1H-pyrazol-3-yl)butanoic Acid]	9.5 nM	5.1 nM	0.5 nM	52 nM	–	–	–	–
